Laboratory results taken from patent US20180050993A1, “NOVEL FLUORINATED DERIVATIVES AS EGFR INHIBITORS USEFUL FOR TREATING CANCERS” (Trillium Therapeutics Inc., priority 2015, published 2018).
Where a name gives a salt, the structure may show the parent alone. Read-outs that look alike come from different tables or passages of the source.

What was measured:
[1] = target: T1, P-gp (Homo sapiens, UniProt P08183); assay: Evaluation of P-gp efflux in Caco-2 cell monolayers; assay type: in vitro ADME;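 further: Caco-2 monolayers dosed apically or basolaterally with test compound at 5 µM in HBSS with HEPES and glucose, 37 °C, donor and receiver sampled after 120 min, LC/MS peak areas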
T1 construct: host or cells: Caco-2 (C2BBe1)
T1 sequence (P08183 whole entry): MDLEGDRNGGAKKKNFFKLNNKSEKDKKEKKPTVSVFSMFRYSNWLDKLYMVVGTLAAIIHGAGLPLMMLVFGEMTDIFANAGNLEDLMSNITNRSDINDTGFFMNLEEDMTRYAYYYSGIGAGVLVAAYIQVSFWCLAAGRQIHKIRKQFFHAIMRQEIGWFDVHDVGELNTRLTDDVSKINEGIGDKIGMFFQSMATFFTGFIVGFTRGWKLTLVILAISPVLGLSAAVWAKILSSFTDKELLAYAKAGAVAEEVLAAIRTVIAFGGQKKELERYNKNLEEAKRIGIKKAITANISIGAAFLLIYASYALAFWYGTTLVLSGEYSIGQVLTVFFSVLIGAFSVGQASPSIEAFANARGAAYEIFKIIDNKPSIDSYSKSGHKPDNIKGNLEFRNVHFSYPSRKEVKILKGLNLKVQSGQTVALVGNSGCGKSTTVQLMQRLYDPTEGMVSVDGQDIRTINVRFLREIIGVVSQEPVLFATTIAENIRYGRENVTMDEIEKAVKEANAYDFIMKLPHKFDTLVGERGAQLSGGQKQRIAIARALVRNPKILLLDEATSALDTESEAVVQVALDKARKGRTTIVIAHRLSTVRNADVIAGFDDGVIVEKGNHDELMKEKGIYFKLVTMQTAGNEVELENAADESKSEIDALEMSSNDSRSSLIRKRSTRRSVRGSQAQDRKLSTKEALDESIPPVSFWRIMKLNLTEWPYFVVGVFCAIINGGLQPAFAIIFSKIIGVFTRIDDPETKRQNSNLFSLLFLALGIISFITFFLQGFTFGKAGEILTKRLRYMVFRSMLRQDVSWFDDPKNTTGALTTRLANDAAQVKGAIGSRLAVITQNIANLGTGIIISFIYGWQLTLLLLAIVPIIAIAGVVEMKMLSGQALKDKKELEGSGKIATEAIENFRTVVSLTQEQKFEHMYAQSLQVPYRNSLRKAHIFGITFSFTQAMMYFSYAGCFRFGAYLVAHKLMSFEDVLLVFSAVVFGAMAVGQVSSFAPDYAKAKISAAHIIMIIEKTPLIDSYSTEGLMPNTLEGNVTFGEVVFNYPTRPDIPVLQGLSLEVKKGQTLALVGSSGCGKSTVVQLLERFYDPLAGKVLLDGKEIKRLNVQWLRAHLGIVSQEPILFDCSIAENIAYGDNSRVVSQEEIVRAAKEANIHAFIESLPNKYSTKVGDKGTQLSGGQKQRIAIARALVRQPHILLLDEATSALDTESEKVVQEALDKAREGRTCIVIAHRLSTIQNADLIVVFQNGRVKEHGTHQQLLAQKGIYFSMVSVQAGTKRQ

[2] = Mouse liver microsomal stability; assay type: in vitro ADME; conditions: stability in pooled mouse (CD-1, male) liver microsomes 0.5 mg/ml, compound 1 μM, parent compound by LC/MS, in % (unit assumed)
Experimental: (§1) Working stocks were initially diluted to a concentration of 40.0 μM in 0.1 M potassium phosphate buffer before addition to the reaction vials. Pooled mouse (CD-1, male) or human (50 donors) liver microsomes were utilized at a final concentration of 0.5 mg/ml. Duplicate wells were used for each time point (0 and 30 minutes). Reactions were carried out at 37° C. in a shaker, and the final concentration of DMSO was kept constant at 0.01%. The final volume for each reaction was 100 μL, which includes the addition of an NADPH-Regeneration solution (NRS) mix. This NRS mix is comprised of glucose 6-phosphate dehydrogenase (0.4 U/mL), NADP+ (1.3 mM), MgCl2 (3.3 mM), and glucose 6-phosphate (3.3 mM) in assay mixtures. Upon completion of the 30 minute time point, reactions were terminated by the addition of 1.5-volumes (150 μL) of ice-cold, acetonitrile with 0.5% formic acid and internal standard. Samples were then centrifuged at 4,000 rpm for 10 minutes to remove debris and precipitated protein. Approximately 150 μL of supernatant was subsequently transferred to a new 96 well microplate for LC/MS analysis.
(§2) Narrow-window mass extraction LC/MS analysis was performed for all samples using a Waters Xevo quadrupole time-of-flight (QTof) mass spectrometer and an ACQUITY UPLC system, to determine relative peak areas of parent compound.
(§3) Human and mouse liver microsomes contain a wide variety of drug metabolizing enzymes and are commonly used to support in vitro ADME (absorption, distribution, metabolism and excretion) studies. These microsomes are used to examine the potential first-pass metabolism by-products of orally administered drugs. Representative compounds of the application were evaluated for their stability in human and mouse liver microsomes.

[3] = Human liver microsomal stability; assay type: in vitro ADME; conditions: stability in pooled human (50 donors) liver microsomes 0.5 mg/ml, compound 1 μM, parent compound by LC/MS
Experimental: as §1, §2, §3

[4] = target: T2, EGFR (Homo sapiens, UniProt P00533); assay: Kinase HotSpot profiling (Reaction Biology), 33P-ATP filter-binding; assay type: biochemical; conditions: WT EGFR
T2 construct: purchased Reaction Biology
T2 sequence (P00533 25-1210): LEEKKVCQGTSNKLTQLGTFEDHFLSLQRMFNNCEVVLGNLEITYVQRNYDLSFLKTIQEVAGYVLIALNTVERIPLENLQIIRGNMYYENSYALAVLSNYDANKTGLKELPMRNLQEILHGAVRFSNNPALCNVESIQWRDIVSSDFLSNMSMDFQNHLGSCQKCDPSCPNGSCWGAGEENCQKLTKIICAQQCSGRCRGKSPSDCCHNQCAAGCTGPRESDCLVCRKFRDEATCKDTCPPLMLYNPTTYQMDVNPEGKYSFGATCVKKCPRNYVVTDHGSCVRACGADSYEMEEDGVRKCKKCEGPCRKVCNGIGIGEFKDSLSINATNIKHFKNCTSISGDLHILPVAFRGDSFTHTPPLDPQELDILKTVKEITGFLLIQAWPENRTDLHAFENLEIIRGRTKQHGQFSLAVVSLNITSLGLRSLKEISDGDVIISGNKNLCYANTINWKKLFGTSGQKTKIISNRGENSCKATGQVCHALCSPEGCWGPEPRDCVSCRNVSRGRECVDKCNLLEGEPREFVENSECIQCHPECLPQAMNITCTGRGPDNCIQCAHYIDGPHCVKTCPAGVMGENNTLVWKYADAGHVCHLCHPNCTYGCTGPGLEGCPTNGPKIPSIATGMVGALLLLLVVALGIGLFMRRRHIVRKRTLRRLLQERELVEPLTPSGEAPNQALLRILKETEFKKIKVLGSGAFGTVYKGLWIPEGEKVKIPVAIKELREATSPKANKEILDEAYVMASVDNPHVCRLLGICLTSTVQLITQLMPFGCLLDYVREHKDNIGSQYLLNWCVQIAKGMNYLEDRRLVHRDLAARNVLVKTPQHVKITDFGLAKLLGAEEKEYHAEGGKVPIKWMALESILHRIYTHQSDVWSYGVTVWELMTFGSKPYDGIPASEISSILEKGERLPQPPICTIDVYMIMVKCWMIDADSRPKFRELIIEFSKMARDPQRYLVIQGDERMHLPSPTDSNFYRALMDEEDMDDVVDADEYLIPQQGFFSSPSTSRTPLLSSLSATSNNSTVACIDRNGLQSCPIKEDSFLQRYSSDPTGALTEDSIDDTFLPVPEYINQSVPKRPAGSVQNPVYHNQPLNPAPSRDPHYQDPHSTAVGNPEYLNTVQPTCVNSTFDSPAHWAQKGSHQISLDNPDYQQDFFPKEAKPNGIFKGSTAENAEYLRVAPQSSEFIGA
Experimental: (§4) Base Reaction buffer; 20 mM Hepes (pH 7.5), 10 mM MgCl2, 1 mM EGTA, 0.02% Brij35, 0.02 mg/ml BSA, 0.1 mM Na3VO4, 2 mM DTT, 1% DMSO
(§5) *Required cofactors are added individually to each kinase reaction
(§6) 1. The indicated substrate was prepared in fresh Base Reaction Buffer.
(§7) 2. Any required cofactors were added to the substrate solution above.
(§8) 3. Indicated kinase was added into the substrate solution and gently mixed.
(§9) 4. Compounds in DMSO were added into the kinase reaction mixture by Acoustic technology (Echo550; nanoliter range) and incubated for 20 minutes at room temperature.
(§10) 5. 33P-ATP (specific activity 10 μCi/μl) was added into the reaction mixture to initiate the reaction.
(§11) 6. The kinase reaction was incubated for 2 hours at room temperature
(§12) 7. Reactions were spotted onto P81 ion exchange paper.
(§13) 8. Kinase activity was detected by filter-binding method.
(§14) Representative compounds of Formula I were evaluated against WT EGFR and mutant EGFR (L858R and L858R, T790M) kinases. IC50 concentrations are illustrated in Table 9.

[5] = target: T3, EGFR (L858R) (Homo sapiens, UniProt P00533, L858R); assay: as above; assay type: biochemical; conditions: mutant EGFR L858R
T3 construct: purchased Reaction Biology
T3 sequence (P00533 25-1210 L858R): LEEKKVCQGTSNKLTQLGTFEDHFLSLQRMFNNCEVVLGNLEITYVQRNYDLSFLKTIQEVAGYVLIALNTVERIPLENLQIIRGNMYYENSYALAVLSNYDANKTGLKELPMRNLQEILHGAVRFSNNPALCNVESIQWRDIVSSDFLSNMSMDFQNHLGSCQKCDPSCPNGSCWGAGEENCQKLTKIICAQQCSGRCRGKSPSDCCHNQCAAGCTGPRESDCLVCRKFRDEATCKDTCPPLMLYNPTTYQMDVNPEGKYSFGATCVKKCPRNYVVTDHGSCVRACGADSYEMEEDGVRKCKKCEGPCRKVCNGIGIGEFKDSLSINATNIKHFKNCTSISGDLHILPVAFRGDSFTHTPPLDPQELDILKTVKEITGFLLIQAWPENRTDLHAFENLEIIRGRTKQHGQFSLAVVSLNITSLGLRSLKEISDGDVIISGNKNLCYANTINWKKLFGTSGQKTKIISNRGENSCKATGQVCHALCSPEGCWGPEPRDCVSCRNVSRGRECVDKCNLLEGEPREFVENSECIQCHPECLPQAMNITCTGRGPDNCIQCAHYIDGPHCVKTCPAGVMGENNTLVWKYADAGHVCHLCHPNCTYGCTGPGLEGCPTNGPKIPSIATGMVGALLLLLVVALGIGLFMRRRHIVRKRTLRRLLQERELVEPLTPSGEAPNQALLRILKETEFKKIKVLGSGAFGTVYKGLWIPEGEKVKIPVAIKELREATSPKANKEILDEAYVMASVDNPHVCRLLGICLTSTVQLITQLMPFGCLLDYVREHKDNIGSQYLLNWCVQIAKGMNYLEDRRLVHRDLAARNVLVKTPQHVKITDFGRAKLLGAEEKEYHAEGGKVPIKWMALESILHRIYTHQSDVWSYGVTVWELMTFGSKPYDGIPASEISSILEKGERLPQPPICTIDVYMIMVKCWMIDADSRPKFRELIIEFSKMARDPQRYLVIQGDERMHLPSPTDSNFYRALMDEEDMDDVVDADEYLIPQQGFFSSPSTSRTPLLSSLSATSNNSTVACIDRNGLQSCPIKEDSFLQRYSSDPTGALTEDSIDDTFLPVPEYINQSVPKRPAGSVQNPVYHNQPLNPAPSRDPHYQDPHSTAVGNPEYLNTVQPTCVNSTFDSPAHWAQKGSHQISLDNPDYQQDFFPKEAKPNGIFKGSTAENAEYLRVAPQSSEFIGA
Experimental: as §4, §5, §6, §7, §8, §9, §10, §11, §12, §13, §14

[6] = Brain concentrations after PO administration in rat, peak at 8 hours (Table 5); assay type: in vivo; conditions: brain, PO 50 mg/kg, Table 5 (8 hours)
[7] = Caco-2, pH 7.4, with none (verapamil 0 μM), Caco-2, Verapamil 0 μM, read-out: Recovery (%) AP-BL
[8] = Caco-2, pH 7.4, with none (verapamil 0 μM), Caco-2, Verapamil 0 μM, read-out: Recovery (%) BL-AP
[9] = Caco-2, pH 7.4, with verapamil 100 μM, Caco-2, Verapamil 100 μM, read-out: Recovery (%) AP-BL
[10] = Caco-2, pH 7.4, with verapamil 100 μM, Caco-2, Verapamil 100 μM, read-out: Recovery (%) BL-AP

Work on CC(C)NCC(O)COc1cccc2ccccc12 (centres unmarked) [Propranolol] yielded a recovery at 120 min, 5 μM [1, 7] of 69.8%, a recovery at 120 min, 5 μM [1, 8] of 85% and a Papp A→B at 120 min, 5 μM ([1]; pH 7.4, Caco-2, Verapamil 0 μM) of 25.1 ×10⁻⁶ cm/s. It also gave a Papp B→A at 120 min, 5 μM ([1]; pH 7.4, Caco-2, Verapamil 0 μM) of 16.3 ×10⁻⁶ cm/s and an efflux ratio at 120 min, 5 µM ([1]; pH 7.4, Caco-2, Verapamil 0 μM) of 0.65.

With Fc1cc(F)c(Nc2ncnc3cc(OCCOC(F)F)c(OCCOC(F)F)cc23)c(F)c1 [2(Ll), 6,7-bis[2-(difluoromethoxy)ethoxy]-N-(2,4,6-trifluorophenyl)quinazolin-4-amine] the “MLM (30 min)” value [2] was 39.3 and the HLM (30 min) [3] was 82.1%.

With FC(F)OCCOc1cc2ncnc(Nc3ccccc3Cl)c2cc1OCCOC(F)F [2(Dd)] the “MLM (30 min)” value [2] was 22.2 and the HLM (30 min) [3] was 54.7%.

Work on COc1cc2ncnc(Nc3ccc(F)c(Cl)c3F)c2cc1OC(=O)N1CCC[C@H](OC(F)F)C1 [2(Pp), [4-(3-chloro-2,4-difluoro-anilino)-7-methoxy-quinazolin-6-yl] (3S)-3-(difluoromethoxy)piperidine-1-carboxylate] yielded an IC50 [4] of 0.143 nM and an IC50 [5] of 0.345 nM.

With Fc1ccc(Nc2ncnc3cc(OCCOC(F)F)c(OCCOC(F)F)cc23)c(F)c1Cl [2(d), N-(3-chloro-2,4-difluoro-phenyl)-6,7-bis[2-(difluoromethoxy)ethoxy]quinazolin-4-amine] the “MLM (30 min)” value [2] was 90.4 and the HLM (30 min) [3] was 83.1%.

With FC(F)OCCOc1cc2ncnc(Nc3ccccc3C(F)(F)F)c2cc1OCCOC(F)F [2(Ee), 6,7-bis[2-(difluoromethoxy)ethoxy]-N-[2-(trifluoromethyl)phenyl]quinazolin-4-amine] the “MLM (30 min)” value [2] was 11.8 and the HLM (30 min) [3] was 49.2%.

With Fc1cc(Cl)ccc1Nc1ncnc2cc(OCCOC(F)F)c(OCCOC(F)F)cc12 [2(e), N-(4-chloro-2-fluoro-phenyl)-6,7-bis[2-(difluoromethoxy)ethoxy]quinazolin-4-amine] the “MLM (30 min)” value [2] was 67.8 and the HLM (30 min) [3] was 89.6%.

With Fc1cccc(F)c1Nc1ncnc2cc(OCCOC(F)F)c(OCCOC(F)F)cc12 [2(Kk), 6,7-bis[2-(difluoromethoxy)ethoxy]-N-(2,6-difluorophenyl)quinazolin-4-amine] the “MLM (30 min)” value [2] was 43.7 and the HLM (30 min) [3] was 77.6%.

For COc1cc2ncnc(Nc3cccc(Cl)c3F)c2cc1OCCOC(F)F [2(i), N-(3-chloro-2-fluoro-phenyl)-6-[2-(difluoromethoxy)ethoxy]-7-methoxy-quinazolin-4-amine], the “MLM (30 min)” value [2] was 1.5 and the HLM (30 min) [3] was 19.7%.

Work on COc1cc2ncnc(Nc3ccc(F)c(Cl)c3F)c2cc1NC(=O)N1CCC(COC(F)F)CC1 [3(A), N-[4-(3-chloro-2,4-difluoro-anilino)-7-methoxy-quinazolin-6-yl]-4-(difluoromethoxymethyl)piperidine-1-carboxamide] yielded an IC50 [4] of 0.0298 nM and an IC50 [5] of 0.0891 nM.

For COc1cc2ncnc(Nc3ccc(F)c(Cl)c3F)c2cc1OCCOC(F)F [2(k), N-(3-chloro-2,4-difluoro-phenyl)-6-[2-(difluoromethoxy)ethoxy]-7-methoxy-quinazolin-4-amine], the “MLM (30 min)” value [2] was 0.7 and the HLM (30 min) [3] was 60.4%.

COc1cc2ncnc(Nc3ccc(F)c(Cl)c3F)c2cc1OC(=O)N1CCC(OC(F)F)CC1 [2(Oo), [4-(3-chloro-2,4-difluoro-anilino)-7-methoxy-quinazolin-6-yl] 4-(difluoromethoxy)piperidine-1-carboxylate] showed an IC50 [4] of 0.0205 nM and an IC50 [5] of 0.052 nM.

For C[C@H]1O[C@@H](O[C@H]2[C@@H](O)C[C@H](O[C@H]3[C@@H](O)C[C@H](O[C@H]4CC[C@@]5(C)[C@H](CC[C@@H]6[C@@H]5C[C@@H](O)[C@]5(C)[C@@H](C7=CC(=O)OC7)CC[C@]65O)C4)O[C@@H]3C)O[C@@H]2C)C[C@H](O)[C@@H]1O [Digoxin], the recovery at 120 min, 5 μM [1, 7] was 76.9%, the recovery at 120 min, 5 μM [1, 8] was 84.3% and the recovery at 120 min, 5 μM [1, 9] was 90.3%. The recovery at 120 min, 5 μM [1, 10] was 99.7%, the Papp A→B at 120 min, 5 μM ([1]; pH 7.4, Caco-2, Verapamil 0 μM) was 0.64 ×10⁻⁶ cm/s and the Papp B→A at 120 min, 5 μM ([1]; pH 7.4, Caco-2, Verapamil 0 μM) was 15.8 ×10⁻⁶ cm/s.

In the case of COc1cc2ncnc(Nc3ccc(F)c(Cl)c3F)c2cc1NC(=O)N1CC(OC(F)F)C1 [3(B), N-[4-(3-chloro-2,4-difluoro-anilino)-7-methoxy-quinazolin-6-yl]-3-(difluoromethoxy)azetidine-1-carboxamide], the IC50 [4] is reported as 0.0125 nM and the IC50 [5] is reported as 0.0138 nM.

In the case of Fc1c(Nc2ncnc3cc(OCCOC(F)F)c(OCCOC(F)F)cc23)ccc(Cl)c1Cl [2(a), N-(3,4-dichloro-2-fluoro-phenyl)-6,7-bis[2 (difluoromethoxy)ethoxy]quinazolin-4-amine], the “MLM (30 min)” value [2] is reported as 72.5 and the HLM (30 min) [3] is reported as 90.7%.

With FC(F)OCCOc1cc2ncnc(Nc3ccc(C(F)(F)F)cc3)c2cc1OCCOC(F)F [2(Gg), 6,7-bis[2-(difluoromethoxy)ethoxy]-N-[4-(trifluoromethyl)phenyl]quinazolin-4-amine] the “MLM (30 min)” value [2] was 106.2 and the HLM (30 min) [3] was 99.8%.

For C#Cc1cccc(Nc2ncnc3cc(OCCOC)c(OCCOC)cc23)c1 [Erlotinib•HCl, N-(3-ethynylphenyl)-6,7-bis(2-methoxyethoxy)quinazolin-4-amine], the Cmax ([6]; Sprague-Dawley) was 828 ng/g, the Tmax ([6]; Sprague-Dawley) was 8 h and the AUCInf [6] was 18449 ng·h/g. For the same molecule, the AUClast [6] was 14522 ng·h/g, the recovery at 120 min, 5 μM [1, 7] was 55.5% and the recovery at 120 min, 5 μM [1, 8] was 56.2%. The recovery at 120 min, 5 μM [1, 9] was 76.8%, the recovery at 120 min, 5 μM [1, 10] was 58% and the Papp A→B at 120 min, 5 μM ([1]; pH 7.4, Caco-2, Verapamil 0 μM) was 16 ×10⁻⁶ cm/s. It also gave a Papp B→A at 120 min, 5 μM ([1]; pH 7.4, Caco-2, Verapamil 0 μM) of 13.9 ×10⁻⁶ cm/s.

For Fc1c(Cl)cccc1Nc1ncnc2cc(OCCOC(F)F)c(OCCOC(F)F)cc12 [2(Ff), N-(3-chloro-2-fluoro-phenyl)-6,7-bis[2-(difluoromethoxy)ethoxy]quinazolin-4-amine], the “MLM (30 min)” value [2] was 69.6 and the HLM (30 min) [3] was 76.4%.

For C#Cc1cccc(Nc2ncnc3cc(OCCOC(F)F)c(OCCOC(F)F)cc23)c1F [2(Nn)], the IC50 [4] was 0.587 nM and the IC50 [5] was 0.977 nM.

For Fc1ccc(Nc2ncnc3cc(OCCOC(F)F)c(OCCOC(F)F)cc23)cc1Cl [2(c), N-(3-chloro-4-fluoro-phenyl)-6,7-bis[2-(difluoromethoxy)ethoxy]quinazolin-4-amine], the “MLM (30 min)” value [2] was 94.6 and the HLM (30 min) [3] was 88.5%.

In the case of Fc1ccccc1Nc1ncnc2cc(OCCOC(F)F)c(OCCOC(F)F)cc12 [2(Hh), 6,7-bis[2-(difluoromethoxy)ethoxy]-N-(2-fluorophenyl)quinazolin-4-amine], the “MLM (30 min)” value [2] is reported as 51.8 and the HLM (30 min) [3] is reported as 71.6%.

For C#Cc1cccc(Nc2ncnc3cc(OCCOC(F)F)c(OCCOC(F)F)cc23)c1 [2(b), 6,7-bis[2-(difluoromethoxy)ethoxy]-N-(3-ethynylphenyl)quinazolin-4-amine], the “MLM (30 min)” value [2] was 94.3 and the HLM (30 min) [3] was 96.4%.
